Drawing on US20150274932A1, “USE OF BIOCIDES AS FLAME RETARDANTS” (BAYER CROPSCIENCE AG, priority 2012, published 2015), this text covers flash ignition temperature and spontaneous ignition temperature for one compound.

The nature of the data set: ASTM D 1929 ignition temperature test, polypropylene beads with and without Deltamethrin. It is filed as physicochemical. The following applies: polypropylene beads with 11 wt % Deltamethrin and 2 wt % Bumetrizole vs pure polypropylene beads; air velocity 25 mm/s; FIG. 1. An excerpt: ASTM D 1929: Standard Test Method for Determining Ignition Temperature of Plastics
The objective of this method is to determine at which temperature plastic material (sheet or granules) release flammable gases and vapors to such an extent, that an explosive mixture with air can be formed, that can be ignited with a pilot flame.
This “flash-point” of plastics is an important safety characteristic, which can be used to assess explosion and fire risk in plant where plastic material is processed, handled or stored. The objective of this method is to determine the temperature at which gases and vapors released from plastic sheets or granules spontaneously catch fire, i.e. without contact to an external ignition source. The Self-Ignition Temperature is relevant for the assessment of ignition risks due to hot surfaces in plant where plastic material is processed, e.g. in extruders. The tests are carried out by exposing the test item (sample) in an oven to a controlled stream of hot, fresh air. Ignition is detected by monitoring the temperature of the sample. For flash ignition, a pilot flame above the exhaust of the oven is used. For self-ignition test, no external ignition source is applied. The test are carried out in isothermal mode, i.e. at constant temperature. Several trials, at different temperatures are necessary to find the lowest temperature, at which ignition does occur. […]

For `CC1(C)[C@H](C(=O)O[C@H](C#N)c2cccc(Oc3ccccc3)c2)[C@@H]1C=C(Br)Br` [Deltamethrin], the flash ignition temperature result is “higher flash ignition temperature” and the spontaneous ignition temperature result was “higher spontaneous ignition temperature”.
